T1: GlAgo (Giardia Argonaute) (Giardia duodenalis, UniProt A8BCK6)
T1 construct: gene Ago; full-length ORF from Giardia genomic DNA in pET28b, His-tagged (C-terminal His6 encoded by reverse primer), expressed in E. coli BL21(DE3) with chaperones, Ni-NTA purified; strain WB is printed for the trophozoites used, not for the cloning DNA
T1 sequence (A8BCK6 1-900): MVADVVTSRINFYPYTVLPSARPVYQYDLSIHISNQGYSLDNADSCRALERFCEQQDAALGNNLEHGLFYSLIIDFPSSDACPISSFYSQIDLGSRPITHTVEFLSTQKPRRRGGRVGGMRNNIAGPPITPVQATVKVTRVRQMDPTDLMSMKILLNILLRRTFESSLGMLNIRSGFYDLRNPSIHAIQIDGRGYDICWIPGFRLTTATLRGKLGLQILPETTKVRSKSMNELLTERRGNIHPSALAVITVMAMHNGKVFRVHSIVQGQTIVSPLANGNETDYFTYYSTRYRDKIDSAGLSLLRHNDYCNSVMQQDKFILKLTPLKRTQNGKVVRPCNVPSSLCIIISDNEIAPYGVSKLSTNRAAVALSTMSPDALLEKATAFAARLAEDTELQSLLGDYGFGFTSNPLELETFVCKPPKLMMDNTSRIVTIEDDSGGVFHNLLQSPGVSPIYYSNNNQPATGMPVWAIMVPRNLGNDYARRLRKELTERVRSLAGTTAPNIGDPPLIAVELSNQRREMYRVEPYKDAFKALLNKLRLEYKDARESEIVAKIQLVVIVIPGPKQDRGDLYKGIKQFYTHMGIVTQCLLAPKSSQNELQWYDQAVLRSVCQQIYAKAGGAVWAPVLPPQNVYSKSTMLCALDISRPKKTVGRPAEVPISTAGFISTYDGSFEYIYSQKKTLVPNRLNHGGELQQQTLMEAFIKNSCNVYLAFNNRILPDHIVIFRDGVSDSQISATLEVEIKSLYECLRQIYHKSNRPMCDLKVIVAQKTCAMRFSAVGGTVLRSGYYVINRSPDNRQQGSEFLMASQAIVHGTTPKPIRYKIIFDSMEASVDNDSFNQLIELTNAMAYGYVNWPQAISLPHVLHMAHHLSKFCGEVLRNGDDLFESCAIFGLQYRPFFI

T2: GlAgo (Giardia Argonaute) (Giardia lamblia, UniProt A8BCK6 1-900)
T2 sequence: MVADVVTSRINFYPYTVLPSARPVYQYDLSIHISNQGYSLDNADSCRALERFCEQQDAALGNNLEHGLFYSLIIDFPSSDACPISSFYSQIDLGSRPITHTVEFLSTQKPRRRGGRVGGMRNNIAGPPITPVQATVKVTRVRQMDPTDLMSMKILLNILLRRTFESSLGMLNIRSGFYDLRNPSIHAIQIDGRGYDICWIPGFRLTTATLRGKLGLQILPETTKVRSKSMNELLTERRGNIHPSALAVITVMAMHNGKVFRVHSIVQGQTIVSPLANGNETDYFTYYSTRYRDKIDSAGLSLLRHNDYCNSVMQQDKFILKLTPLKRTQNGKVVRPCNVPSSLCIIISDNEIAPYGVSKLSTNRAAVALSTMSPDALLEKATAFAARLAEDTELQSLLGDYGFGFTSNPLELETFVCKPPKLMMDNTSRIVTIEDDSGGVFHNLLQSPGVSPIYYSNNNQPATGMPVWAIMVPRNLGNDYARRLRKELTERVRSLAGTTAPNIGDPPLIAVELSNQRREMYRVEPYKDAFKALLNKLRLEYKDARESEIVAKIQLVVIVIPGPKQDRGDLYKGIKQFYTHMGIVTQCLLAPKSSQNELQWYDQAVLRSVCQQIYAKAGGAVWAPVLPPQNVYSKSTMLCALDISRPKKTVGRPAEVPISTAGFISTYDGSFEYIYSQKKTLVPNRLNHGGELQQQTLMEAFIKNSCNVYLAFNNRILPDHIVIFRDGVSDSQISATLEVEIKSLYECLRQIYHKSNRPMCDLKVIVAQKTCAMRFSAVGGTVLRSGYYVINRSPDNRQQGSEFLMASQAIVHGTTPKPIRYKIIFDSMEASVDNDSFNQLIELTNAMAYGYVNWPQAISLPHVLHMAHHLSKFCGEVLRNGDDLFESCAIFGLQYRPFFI


Columns and labels:
[1] = target: T1, GlAgo (Giardia Argonaute); test: m7GpppG-Sepharose affinity retention, elution with free m7GpppG, anti-His Western blot; type: binding; settings: 20 mM HEPES pH 7.4, 150 mM KCl, 1 mM EDTA, 2 mM DTT; washed with 0.1 mM GTP, eluted with 0.1 mM m7GpppG
[2] = target: T2, GlAgo (Giardia Argonaute); test: EMSA; 10 ng miR2; competed by unlabeled miR2 and by yeast RNA (no sequence specificity); EMSA: native 6% polyacrylamide gel, 10 ng radiolabeled miR2; binding buffer, pH and temperature not given in the material; settings: protein: recombinant; tags: C-terminal 6xHis (encoded in reverse primer S6); single strand

Row | Molecule | m7GpppG-Sepharose affinity retention, elution with free m7GpppG, anti-His Wester [1] | binding result [2]
1 | C[n+]1cn([C@@H]2O[C@H](COP(=O)(O)OP(=O)(O)OP(=O)(O)OC[C@H]3O[C@@H](n4cnc5c(=O)[nH]c(N)nc54)[C@H](O)[C@@H]3O)[C@@H](O)[C@H]2O)c2nc(N)[nH]c(=O)c21 [m^7GpppG] | the protein was specifically eluted off the Sepharose beads with m^7GpppG | –
2 | CAGCCUAAUCACCGCCCCUAUAGUCC (ssRNA) [miR2] | – | binds

Reference: PMC2583053, “snoRNA, a Novel Precursor of microRNA in Giardia lamblia” (PLoS Pathogens, 2008)
